Several values for one entry are separate records, joined by “and”; a condition that tells them apart may be missing. Identical values can stand only once. Entries after “also recorded” stand apart in the source; their conditions may differ. Like-named read-outs stand apart in the source and are kept apart here.
Assays:
Fat Metabolism in Mice = experiment: Determination of ketonuria in mice (urine ketone bodies, Ketostix strips); assay type: in vivo; parameters: key to Ketone level: —: No detectable levels of Ketone in the urine; Trace amount of Ketone (6 mg/dL) in the urine; Small amount of Ketone (15 mg/dL) in the urine; settings: week 23; for Ketone level: urine of individual mice; for Average Ketone levels: urine
Method: In a preliminary in vivo experiment, four groups of mice (each group including three or four mice of same genetic background) were tested for levels of ketone bodies in their urine after consumption of the high fat and/or high cholesterol rodent chow diet supplemented with or without at least on biocompatible emulsifier. In this study, all mice in all groups (all being eight weeks old when this study commenced) were fed with high fat/high cholesterol chow diet (Catalog No. 12079B from Research Diets) for eight weeks. Starting at week 9, the diet of all mice was switched to low fat chow (AIN-76A Rodent Diet from Research Diets). For 15 weeks thereafter, the control mice of group A were fed with pure low fat chow while the mice in treated groups, B, C and D, were fed with low fat chow supplemented with at least one biocompatible emulsifier as follow: Group B mice were fed with low fat chow supplemented with 0.5% Hyodeoxycholic acid (HDCA) and 1.25% D-Limonene (DLM). Group C mice were fed with low fat chow supplemented with 5% DLM. Group D mice were fed with low fat chow supplemented with 1.25% HDCA.
At week 23 of the experiment, urine samples from each mice were taken and analyzed for ketone body levels using Ketostix® stips.

[1] = wild-type mice provided dietary HDCA; cited from earlier work
[2] = taken orally, cited from earlier work
[3] = test system: C57BL/6 LDL r-KO knockout mice; settings: HDCA fed, relative to mice not provided HDCA; cited from earlier work
[4] = Escape of oral HDCA from the entero-hepatic circulation into the systemic circulation; assay type: in vivo, human; settings: 750 mg/day dose, average adult person weighing 70 kg, assuming about 70% enters systemic circulation
Source text: (§1) It is know in the art that when hyodeoxycholic acid (a hydrophilic bile acid) is taken orally, it is absorbed through the gut and reaches the liver, but then a large fraction of it, up to 70%, escapes the entero-hepatic circulation, and enters the systemic circulation. See Salvioli et al., European Journal of Clinical Investigation, Vol. 18(1), pp. 22-28 (February 1988). Therefore, the induction of ketonuria is an indication that HDCA upon becoming bioavailable the systemic circulation is able to induce dissolution of the body fat.
(§2) Considering that about 70% of HDCA escapes the entero-hepatic pathway and enters into the systemic blood circulation, the 750 mg/day dose of HDCA averages to concentration of about 270 μM in the blood of an average adult person weighing 70 kg, as compared to normal levels of bile salts in the blood which are less than 10 μM. Some embodiments described herein are effective to mimic the high levels of bile salts observed as safe in Example 2, and in so doing are effective to result in the treatment of obesity.

Fat Metabolism In Human = experiment: Ketonuria in an individual taking oral HDCA (weekly Ketostix testing); assay type: in vivo; settings: 250 mg orally three times a day (750 mg/day), 10 weeks, no caloric restriction, one individual
Source text: as §1, §2
An in vivo experiment was performed to assess the effectiveness of HDCA in causing fat catabolism and treating obesity in human. In this experiment, an overweight individual otherwise healthy took 250 mg of HDCA three times a day (750 mg/day) for a period of 10 weeks without caloric restriction.

[5] = drug compared with placebo; cited from earlier work
[6] = low fat chow + 5% DLM (Group C)
[7] = low fat chow + 1.25% HDCA (Group D)

C=C(C)[C@H]1CC=C(C)CC1 [DLM, D-Limonene]
Ketone level (Fat Metabolism in Mice; [6]): — and T (Trace amount of Ketone (6 mg/dL) in the urine) (2×) and S (Small amount of Ketone (15 mg/dL) in the urine)
Average Ketone levels (Fat Metabolism in Mice; [6]): 42

C[C@H](CCC(=O)O)[C@H]1CC[C@H]2[C@@H]3C[C@H](O)[C@@H]4C[C@H](O)CC[C@]4(C)[C@H]3CC[C@]12C [HDCA, hyodeoxycholic acid]
Plasma levels [1]: up to 50 μM
Ketone level (Fat Metabolism in Mice; [7]): — and T (Trace amount of Ketone (6 mg/dL) in the urine) and S (Small amount of Ketone (15 mg/dL) in the urine)
Average Ketone levels (Fat Metabolism in Mice; [7]): 100
Fraction escaping the entero-hepatic circulation and entering the systemic circulation [2]: about 70%
Fraction escaping the entero-hepatic circulation and entering the systemic circulation ([2]; listed as hyodeoxycholic acid): up to 70%
Rate of formation of atherosclerotic plaque [3]: reduced rate of formation of atherosclerotic plaque
Average concentration in the blood [4]: about 270 μM
Ketonuria / ketotic state (Fat Metabolism In Human): mild ketonuria; also recorded: mild ketotic state

CCN[C@@H](C)Cc1cccc(C(F)(F)F)c1 [dexfenfluramine]
Weight loss [5]: about 5 % of body weight

CCCCCCCCCCC[C@@H](C[C@@H]1OC(=O)[C@H]1CCCCCC)OC(=O)[C@H](CC(C)C)NC=O [orlistat]
Weight loss [5]: about 5 % of body weight

CC(C)(N)Cc1ccccc1 [phentermine]
Weight loss [5]: about 5 % of body weight

CC(C)CC(N(C)C)C1(c2ccc(Cl)cc2)CCC1 (centres unmarked) [sibutramine]
Weight loss [5]: about 5 % of body weight

Reference: patent publication US20140148422A1, “TREATMENT OF GLUCOSE INTOLERANCE” (AtheroNova Operations, Inc., priority 2009, published 2014)
